Results published in patent EP0403251A2, “Monokine activity interference” (SMITHKLINE BEECHAM CORPORATION, priority 1989, dated 1990).
“Also recorded” adds a separate entry of the source.

Key:
TNF [1] = assay: Endotoxin shock in P. acnes-sensitized mice (P. acnes/LPS model), TNF levels by ELISA; type: in vivo; settings: P acnes/LPS treated mice, increased oral dosage, Figure 1
Description: (§1) This model is a modification of the previously described protocol for the in vivo induction of TNF as described in Haranaka et al., Cancer Immunol Immunother, 18:87-90, (1984). Treatment with Proprionibacterium Acnes (P. acnes) (1mg/animal i.p.) renders mice susceptible to the lethal effects of LPS injected 10 days later.
(§2) P. acnes was purchased from Burroughs Wellcome (Triangle Park, North Carolina, USA), and […]of the heat-killed bacteria was administered in 0.5 ml pyrogen-free saline by intraperitoneal (i.p.) injection to male C57BL/6 mice, obtained from Charles River Laboratories (Stone Ridge, New York, USA) of 6-12 weeks of age. Ten days later, the mice were injected iv. with 1 mg LPS in 0.25 ml saline. Compounds to be tested were administered at various times prior to or following the injection of LPS. The survival of animals was monitored for 1 week.
Plasma levels of TNF were measured using a modification of the basic sandwich ELISA method described in Winston et al., Current Protocols in Molecular Biology, Pg. 11.2.1, Ausubel et al., Ed. (1987) John Wiley and Sons, New York, USA. […] TNF levels in rat samples were calculated from a standard curve genereated with recombinant murine TNF (Genzyme, Boston, MA, USA). TNF levels determined by ELISA correlated with levels detected by the L929 bioassay of Ruff et. al., J. Immunol. […] The ELISA detected levels of TNF down to 25 pg/ml.

TNF [2] = assay: In vivo endotoxin shock models (P. acnes model and/or LPS-GAL model, not specified which); set-up: species or system mice; settings: one or both of the in vivo assays (P. acnes / LPS-GAL)
Description: Two models of endotoxin shock have been utilized to determine in vivo TNF activity and are described below. The actual protocoll used in the models is described in Utility Model Examples A and B set out below, i.e. P. Acnes model and LPS-GAL model.
(§3) Briefly, D-gal ([…]) sensitizes various strains of mice to the lethal effects of endotoxin. The administration of D-gal (300-500mg/kg) intra-venously (i.v.) sensitizes the mice to doses of Lipopolysaccharide(LPS ) as low as 0.1 mg. Briefly, male C57BL/6 mice, obtained from Charles River Laboratories (Stone Ridge, New York, USA) of 6-12 weeks of age were injected i.v. with 0.1 mg of LPS from Salmonella typhosa (Difco Laboratories, Detroit, Michigan, USA) admixed with D(+)-gal (Sigma; 500 mg/kg) in 0.20-0.25 ml pyrogen-free saline. Compounds to be tested were administered at various times prior to or following the iv. injection of LPS/D-gal.
as §1, §2
(§4) Plasma levels of TNF were measured using a modification of the basic sandwich ELISA method described in Winston et al., Current Protocols in Molecular Biology, Pg. 11.2.1, Ausubel et al., Ed. (1987) John Wiley and Sons, New York, USA. The Elisa employed a hampster monoclonal anti-mouse TNF (Genzyme, Boston, MA, USA) as the capture antibody and a polyclonal rabbit anti-murine TNF (Genzyme, Boston, MA, USA) as the detecting antibody. TNF levels in rat samples were calculated from a standard curve genereated with recombinant murine TNF (Genzyme, Boston, MA, USA).

TNF [3] = assay: Endotoxin shock in D-gal-sensitized mice (LPS-GAL model), TNF levels by ELISA and survival; type: in vivo
Description: as §3, with “The protocol used to test the compound of the method of the subject invention was essentially as has been described in Galanos et al., Proc. Nat'l Acad. Sci USA, 76:5939-43 (1979) whose disclosure is herein incorporated by reference. Briefly, D-gal” for “Briefly, D-gal”, “of LPS/D-gal. In this model, the control animals usually die 5-6 hr. following the injection of LPS, although on occasion deaths are seen between 24 and 48 hr.” for “of LPS/D-gal.”
as §4, with “USA). TNF levels determined by ELISA correlated with levels detected by the L929 bioassay of Ruff et. al., J. Immunol. 125:1671-1677 (1980), with 1 Unit of activity in the bioassay corresponding to 70 picograms (pg) of TNF in the ELISA. The ELISA detected levels of TNF down to 25 pg/ml.” for “USA).”

## C[S+]([O-])c1ccc(-c2nc3n(c2-c2ccncc2)CCC3)cc1 (stereo not shown) [Compound 2, 2-(4-Methylsulfoxyphenyl)3-(4-pyridyl)-6,7-dihydro[5H]-pyrrolo-[1,2-a]imidazole]
TNF [1]
  serum TNF levels: reduction in serum TNF levels
TNF [2]
  in vivo TNF levels: in vivo activity; also recorded: reduce the in vivo level of tumor necrosis factor (TNF)
TNF [3]; LPS-GAL Model, 100 mg/kg, Figure 4
  reduction of serum TNF levels: reduction of serum TNF levels
TNF [3]; LPS-GAL model, animals with endotoxic shock, Figure 5, control group 30%
  survival rate: 100%
